# Literature values as cited in patent US20040024003A1, “Flat medicinal preparation for transmucosal administration of oxycodon or a comparable active ingredient in the oral cavity, for use in pain therapy and in addiction therapy” (priority 1999, published 2004).
# What was measured:
# [1] = in vivo
compound,measurement,setting,value
COc1ccc2c3c1O[C@H]1C(=O)CC[C@@]4(O)[C@@H](C2)N(C)CC[C@]314 [oxycodone],average duration of action,[1],4 to 6 h
same,time taken to enter the blood,normal peroral administration,15 to 30 min
same,bioavailable fraction following peroral administration,peroral administration,two thirds
